Laboratory results reported in ChEMBL document CHEMBL3785013, “Novel morpholinoquinoline nucleus clubbed with pyrazoline scaffolds: Synthesis, antibacterial, antitubercular and antimalarial activities” (Eur J Med Chem, 2016).
≈ marks a conversion by molar mass, not a printed value.

Experiments:
Streptococcus pneumoniae = assay: Antibacterial activity against Streptococcus pneumoniae MTCC 1936 after 24 to 48 hrs by broth microdilution method; format: functional
Clostridium tetani = assay: Antibacterial activity against Clostridium tetani MTCC 449 after 24 to 48 hrs by broth microdilution method; format: functional
Bacillus subtilis = assay: Antibacterial activity against Bacillus subtilis MTCC 441 after 24 to 48 hrs by broth microdilution method; format: functional
Salmonella typhi = assay: Antibacterial activity against Salmonella typhi MTCC 98 after 24 to 48 hrs by broth microdilution method; format: functional, Salmonella enterica subsp. enterica serovar Typhi; settings: Salmonella enterica
Vibrio cholerae = assay: Antibacterial activity against Vibrio cholerae MTCC 3906 after 24 to 48 hrs by broth microdilution method; format: functional
Escherichia coli = assay: Antibacterial activity against Escherichia coli MTCC 443 after 24 to 48 hrs by broth microdilution method; format: functional
Candida albicans = assay: Antifungal activity against Candida albicans MTCC 227 after 24 to 48 hrs by broth microdilution method; format: functional
Aspergillus fumigatus = assay: Antifungal activity against Aspergillus fumigatus MTCC 3008 after 24 to 48 hrs by broth microdilution method; format: functional
[1] = system: Mycobacterium tuberculosis; assay: Antituberculosis activity against Mycobacterium tuberculosis H37Rv at 250 ug/ml incubated for 24 hrs measured after 2 to 4 weeks by Lowensteine-Jensen method; format: functional
Plasmodium falciparum = assay: Antimalarial activity against Plasmodium falciparum after 48 hrs; format: functional, organism-based
[2] = system: Schizosaccharomyces pombe; assay: Cytotoxicity against Schizosaccharomyces pombe at 2.5 to 12.5 ug/ml after 17 hrs by trypan blue exclusion method; format: organism-based; settings: in vivo
[3] = system: Mycobacterium tuberculosis; assay: Antituberculosis activity against Mycobacterium tuberculosis H37Rv after 2 to 4 weeks by Lowensteine-Jensen method; format: functional

Compound	MIC (Streptococcus pneumoniae) [µM]	MIC (Clostridium tetani) [µM]	MIC (Bacillus subtilis) [µM]	MIC (Salmonella typhi) [µM]	MIC (Vibrio cholerae) [µM]	MIC (Escherichia coli) [µM]	MIC (Candida albicans) [µM]	MIC (Aspergillus fumigatus) [µM]	inhibition at 250 µg/mL [1] [%]	IC50 (Plasmodium falciparum) [nM]	Activity [2]	MIC [3] [µM]
COc1ccc(C2=NN(C(C)=O)C(c3cc4ccccc4nc3N3CCOCC3)C2)cc1 (stereo not drawn)	145 (≈ 62.4 µg/mL)	1160 (≈ 500 µg/mL)	232 (≈ 99.9 µg/mL)	1160 (≈ 500 µg/mL)	1160 (≈ 500 µg/mL)	232 (≈ 99.9 µg/mL)	2320 (≈ 1000 µg/mL)	1160 (≈ 500 µg/mL)	45	34	Toxic	
CC1(C)S[C@@H]2[C@H](NC(=O)[C@H](N)c3ccccc3)C(=O)N2[C@H]1C(=O)O [AMPICILLIN]	286 (≈ 99.9 µg/mL)	715 (≈ 250 µg/mL)	715 (≈ 250 µg/mL)	286 (≈ 99.9 µg/mL)	286 (≈ 99.9 µg/mL)	286 (≈ 99.9 µg/mL)						
CC(=O)N1N=C(c2ccc(Cl)cc2)CC1c1cc2ccccc2nc1N1CCOCC1 (stereo not drawn)	1150 (≈ 500 µg/mL)	149 (≈ 64.8 µg/mL)	229 (≈ 99.6 µg/mL)	574 (≈ 250 µg/mL)	229 (≈ 99.6 µg/mL)	229 (≈ 99.6 µg/mL)	1150 (≈ 500 µg/mL)	1150 (≈ 500 µg/mL)	96	2870		143 (≈ 62.2 µg/mL)
C=C[C@H]1CN2CC[C@H]1C[C@H]2[C@H](O)c1ccnc2ccc(OC)cc12 [QUININE]										826		
Fc1ccc(C2=NN(c3ccc(F)cc3)C(c3cc4ccccc4nc3N3CCOCC3)C2)cc1 (stereo not drawn)	265 (≈ 125 µg/mL)	132 (≈ 62.1 µg/mL)	212 (≈ 99.8 µg/mL)	212 (≈ 99.8 µg/mL)	132 (≈ 62.1 µg/mL)	265 (≈ 125 µg/mL)	212 (≈ 99.8 µg/mL)	2120 (≈ 1000 µg/mL)	48	3420		
O=C(O)c1cn(C2CC2)c2cc(N3CCNCC3)c(F)cc2c1=O [CIPROFLOXACIN]	150 (≈ 49.7 µg/mL)		150 (≈ 49.7 µg/mL)	75 (≈ 24.9 µg/mL)	75 (≈ 24.9 µg/mL)	75 (≈ 24.9 µg/mL)						
CC(=O)N1N=C(c2ccc(F)cc2)CC1c1cc2ccccc2nc1N1CCOCC1 (stereo not drawn)	238 (≈ 99.6 µg/mL)	238 (≈ 99.6 µg/mL)	597 (≈ 250 µg/mL)	238 (≈ 99.6 µg/mL)	597 (≈ 250 µg/mL)	597 (≈ 250 µg/mL)	597 (≈ 250 µg/mL)	1190 (≈ 500 µg/mL)	32	1670		
NNC(=O)c1ccncc1 [ISONIAZID]												1 (≈ 0.137 µg/mL)
Fc1ccc(N2N=C(c3ccc(Cl)cc3)CC2c2cc3ccccc3nc2N2CCOCC2)cc1 (stereo not drawn)	1030 (≈ 500 µg/mL)	1030 (≈ 500 µg/mL)	410 (≈ 200 µg/mL)	410 (≈ 200 µg/mL)	513 (≈ 250 µg/mL)	205 (≈ 99.8 µg/mL)	2050 (≈ 1000 µg/mL)	205 (≈ 99.8 µg/mL)	24	1790		
COc1ccc(C2=NN(c3ccc(F)cc3)C(c3cc4ccccc4nc3N3CCOCC3)C2)cc1 (stereo not drawn)	259 (≈ 125 µg/mL)	1040 (≈ 500 µg/mL)	518 (≈ 250 µg/mL)	207 (≈ 99.9 µg/mL)	518 (≈ 250 µg/mL)	414 (≈ 200 µg/mL)	518 (≈ 250 µg/mL)	207 (≈ 99.9 µg/mL)	33	51	Non-toxic	
COc1ccc(C2=NN(C=O)C(c3cc4ccccc4nc3N3CCOCC3)C2)cc1 (stereo not drawn)	240 (≈ 100 µg/mL)	1200 (≈ 500 µg/mL)	600 (≈ 250 µg/mL)	240 (≈ 100 µg/mL)	480 (≈ 200 µg/mL)	480 (≈ 200 µg/mL)	1200 (≈ 500 µg/mL)	2400 (≈ 1000 µg/mL)	36	1870		
CC(=O)N1N=C(c2ccc(Br)cc2)CC1c1cc2ccccc2nc1N1CCOCC1 (stereo not drawn)	417 (≈ 200 µg/mL)	208 (≈ 99.7 µg/mL)	1040 (≈ 500 µg/mL)	1040 (≈ 500 µg/mL)	1040 (≈ 500 µg/mL)	521 (≈ 250 µg/mL)	2090 (≈ 1000 µg/mL)	208 (≈ 99.7 µg/mL)	29	18	Toxic	
COc1ccc(C2=NN(C(N)=S)C(c3cc4ccccc4nc3N3CCOCC3)C2)cc1 (stereo not drawn)	223 (≈ 99.8 µg/mL)	446 (≈ 200 µg/mL)	446 (≈ 200 µg/mL)	223 (≈ 99.8 µg/mL)	558 (≈ 250 µg/mL)	558 (≈ 250 µg/mL)	1120 (≈ 500 µg/mL)	223 (≈ 99.8 µg/mL)	63	3240		
COC1=CC(=O)C[C@@H](C)[C@]12Oc1c(Cl)c(OC)cc(OC)c1C2=O [GRISEOFULVIN]							1150 (≈ 405 µg/mL)	283 (≈ 99.8 µg/mL)				
NYSTATIN							107	107				
O=CN1N=C(c2ccc(Cl)cc2)CC1c1cc2ccccc2nc1N1CCOCC1 (stereo not drawn)	148 (≈ 62.3 µg/mL)	475 (≈ 200 µg/mL)	1190 (≈ 500 µg/mL)	1190 (≈ 500 µg/mL)	237 (≈ 99.8 µg/mL)	237 (≈ 99.8 µg/mL)	2380 (≈ 1000 µg/mL)	> 2380	94	28	Toxic	59 (≈ 24.8 µg/mL)
O=CN1N=C(c2ccc(Br)cc2)CC1c1cc2ccccc2nc1N1CCOCC1 (stereo not drawn)	537 (≈ 250 µg/mL)	429 (≈ 200 µg/mL)	214 (≈ 99.6 µg/mL)	134 (≈ 62.4 µg/mL)	214 (≈ 99.6 µg/mL)	214 (≈ 99.6 µg/mL)	537 (≈ 250 µg/mL)	1070 (≈ 500 µg/mL)	32	40	Non-toxic	
CO[C@H]1/C=C/O[C@@]2(C)Oc3c(C)c(O)c4c(O)c(c(/C=N/N5CCN(C)CC5)c(O)c4c3C2=O)NC(=O)/C(C)=C\C=C\[C@H](C)[C@H](O)[C@@H](C)[C@@H](O)[C@@H](C)[C@H](OC(C)=O)[C@@H]1C [RIFAMPIN]									98			48 (≈ 39.5 µg/mL)
NC(=S)N1N=C(c2ccc(F)cc2)CC1c1cc2ccccc2nc1N1CCOCC1 (stereo not drawn)	229 (≈ 99.7 µg/mL)	1150 (≈ 500 µg/mL)	1150 (≈ 500 µg/mL)	143 (≈ 62.3 µg/mL)	574 (≈ 250 µg/mL)	574 (≈ 250 µg/mL)	229 (≈ 99.7 µg/mL)	1150 (≈ 500 µg/mL)	54	1840		
NC(=S)N1N=C(c2ccc(Cl)cc2)CC1c1cc2ccccc2nc1N1CCOCC1 (stereo not drawn)	553 (≈ 250 µg/mL)	221 (≈ 99.9 µg/mL)	221 (≈ 99.9 µg/mL)	553 (≈ 250 µg/mL)	221 (≈ 99.9 µg/mL)	442 (≈ 200 µg/mL)	2210 (≈ 1000 µg/mL)	221 (≈ 99.9 µg/mL)	45	4650		
O=CN1N=C(c2ccc(F)cc2)CC1c1cc2ccccc2nc1N1CCOCC1 (stereo not drawn)	247 (≈ 99.9 µg/mL)	1240 (≈ 500 µg/mL)	154 (≈ 62.3 µg/mL)	1240 (≈ 500 µg/mL)	618 (≈ 250 µg/mL)	494 (≈ 200 µg/mL)	2470 (≈ 1000 µg/mL)	> 2470	93	1040		247 (≈ 99.9 µg/mL)
CCn1cc(C(=O)O)c(=O)c2cc(F)c(N3CCNCC3)cc21 [NORFLOXACIN]	31 (≈ 9.9 µg/mL)	313 (≈ 100 µg/mL)	310 (≈ 99 µg/mL)	31 (≈ 9.9 µg/mL)	31 (≈ 9.9 µg/mL)	31 (≈ 9.9 µg/mL)						
Fc1ccc(N2N=C(c3ccc(Br)cc3)CC2c2cc3ccccc3nc2N2CCOCC2)cc1 (stereo not drawn)	188 (≈ 99.9 µg/mL)	188 (≈ 99.9 µg/mL)	940 (≈ 500 µg/mL)	376 (≈ 200 µg/mL)	470 (≈ 250 µg/mL)	117 (≈ 62.2 µg/mL)	470 (≈ 250 µg/mL)	940 (≈ 500 µg/mL)	95	15	Non-toxic	47 (≈ 25 µg/mL)
NC(=S)N1N=C(c2ccc(Br)cc2)CC1c1cc2ccccc2nc1N1CCOCC1 (stereo not drawn)	402 (≈ 200 µg/mL)	201 (≈ 99.8 µg/mL)	402 (≈ 200 µg/mL)	402 (≈ 200 µg/mL)	201 (≈ 99.8 µg/mL)	201 (≈ 99.8 µg/mL)	> 2010	1010 (≈ 500 µg/mL)	90	44	Non-toxic	201 (≈ 99.8 µg/mL)
O=C(N[C@H](CO)[C@H](O)c1ccc([N+](=O)[O-])cc1)C(Cl)Cl [CHLORAMPHENICOL]	154 (≈ 49.8 µg/mL)	154 (≈ 49.8 µg/mL)	154 (≈ 49.8 µg/mL)	154 (≈ 49.8 µg/mL)	154 (≈ 49.8 µg/mL)	154 (≈ 49.8 µg/mL)						
